This test addresses T1, human NCX1 (Homo sapiens, UniProt P32418).
T1 construct: expressed in transfected cells
The test can be described thus: NCX1 inhibition, reverse mode (Ca2+ influx into cells), FLIPR Fluo-4 assay. Format: cell-based. Conditions: for IC50: inhibition of NCX1 in reverse mode (Ca2+ influx into cells), read-out: NCX1rv IC50. In short, it runs like this: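 Max−min Fluo-4 fluorescence (520 nm, FLIPR, 240 points at 2 s) after 20 µM final gramicidin, which drives Na+ loading and reverse-mode Ca2+ entry, gave % inhibition and IC50. Test compound was preincubated 45 min at 16 °C with Fluo-4-loaded CHO cells stably expressing human NCX1, in pH 7.4 buffer containing 3.5 mM CaCl2 and probenecid.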

Each structure is given as a SMILES string. Structures can show the parent of a compound that is named as a salt.

The term IC50 denotes the concentration that gives 50% inhibition. On to `C[C@@H](NC(=O)c1cnc(Oc2ccc3c(c2)CC[C@@H](c2ccccc2)O3)s1)C(=O)O` [compound 194], for which the IC50 was 700 nM.

Take `O=C(NCc1ccno1)c1cnc(Oc2ccc3c(c2)CCC(c2ccsc2)O3)s1` (stereo not shown) [compound 212]: the half-inhibitory concentration (IC50) turned out to be 300 nM.

For the compound `O=C(CN1CCCC1=O)NCc1cnc(Oc2ccc3c(c2)CCC(c2ccccc2)O3)s1` (stereo not shown) [compound 165], the IC50 worked out at 500 nM.

In the case of `O=C(c1cnc(Oc2ccc3c(c2)CCC(c2ccccc2)O3)s1)N(CCO)CCO` (stereo not shown) [compound 312], the IC50 is 100 nM.

With `Cc1cc(C)n(CCNCc2cnc(Oc3ccc4c(c3)CCC(c3ccccc3)O4)s2)n1` (stereo not shown) [compound 150], the IC50 came to 800 nM.

For `COC(=O)CNCc1cnc(Oc2ccc3c(c2)CC[C@@H](c2ccccc2)O3)s1` [compound 245], the IC50 was 100 nM.

Turning to `O=C(NCc1ccno1)c1csc(Oc2ccc3c(c2)CC[C@@H](c2ccccc2)O3)n1` [compound 353], the IC50 is 92 nM.

For the compound `NC1CC(NC(=O)c2cnc(Oc3ccc4c(c3)CCC(c3cccnc3)O4)s2)C1` (stereo not shown) [compound 265, hydrochloride], the half-maximal inhibitory concentration (IC50) was found to be 7300 nM.

For `Cc1cc2c(cc1Oc1ncc(C(=O)NCCO)s1)CCC(c1ccccc1C)O2` (stereo not shown) [compound 357], the half-inhibitory concentration (IC50) stood at 600 nM.

For the compound `COc1c(F)cccc1C1CCc2cc(Oc3ncc(C(=O)NCCO)s3)ccc2O1` (stereo not shown) [compound 367], the 50% inhibitory concentration (IC50) came out at 270 nM.

With `CCCCNC(=O)c1cnc(Oc2ccc3c(c2)CCC(c2ccccc2)O3)s1` (stereo not shown) [compound 317], the IC50 was 100 nM.

For the compound `c1ccc(C2CCc3cc(Oc4ncc(CNCc5nnc6ccccn56)s4)ccc3O2)cc1` (stereo not shown) [compound 156], the IC50 is 400 nM.

With `CC(C)CNC(=O)c1cnc(Oc2ccc3c(c2)CCC(c2ccccc2)O3)s1` (stereo not shown) [compound 318], the IC50 came to 100 nM.

Take `COC(=O)[C@@H](C)NC(=O)c1cnc(Oc2ccc3c(c2)CC[C@@H](c2ccccc2)O3)s1` [compound 184]: the concentration for half-maximal inhibition (IC50) stood at 400 nM.

Turning to `Oc1cc(CNCc2cnc(Oc3ccc4c(c3)CCC(c3ccccc3)O4)s2)ccn1` (stereo not shown) [compound 154], the concentration for half-maximal inhibition (IC50) was 300 nM.

Take `O=C(NCc1ccncc1)c1cnc(Oc2ccc3c(c2Cl)CCC(c2ccccc2)O3)s1` (stereo not shown) [compound 55, hydrochloride]: the concentration for half-maximal inhibition (IC50) amounted to 1200 nM.

As for `COc1cc(CNC(=O)c2cnc(Oc3ccc4c(c3)CCC(c3ccccc3)O4)s2)ccn1` (stereo not shown) [compound 10], the IC50 turned out to be 600 nM.

In the case of `CC(C)CC(CNC(=O)c1cnc(Oc2ccc3c(c2)CC[C@@H](c2ccccc2)O3)s1)C(=O)O` (stereo partly shown) [compound 238], the 50% inhibitory concentration (IC50) was found to be 300 nM.

On to `CN(C)CC1CN(C(=O)c2cnc(Oc3ccc4c(c3)CC[C@@H](c3ccccc3)O4)s2)CCO1` (stereo partly shown) [compound 286], for which the half-maximal inhibitory concentration (IC50) is 1500 nM.

In the case of `O=C(N[C@H](CO)c1ccccc1)c1cnc(Oc2ccc3c(c2)CC[C@@H](c2ccccc2)O3)s1` [compound 201], the IC50 came out at 300 nM.

For the compound `COC(=O)C1CN(C(=O)c2cnc(Oc3ccc4c(c3)CC[C@@H](c3ccccc3)O4)s2)CC1C` (stereo partly shown) [compound 224], the half-maximal inhibitory concentration (IC50) stood at 300 nM.

Turning to `CCc1ccccc1C1CCc2cc(Oc3ncc(C(=O)NCc4ccno4)s3)ccc2O1` (stereo not shown) [compound 324], the IC50 was 500 nM.

Take `O=C(NCc1ccno1)c1cnc(Oc2ccc3c(c2)CC[C@H](c2ccccc2)O3)s1` [compound 172]: the IC50 turned out to be 400 nM.

In the case of `O=C(NCc1ccno1)c1cnc(Oc2ccc3c(c2)CC[C@@H](c2ccccc2)O3)s1` [compound 171], the IC50 amounted to 100 nM.

By inhibition is commonly meant the share of the control response that was lost under treatment. On to `CC(C)C[C@H](NC(=O)c1cnc(Oc2ccc3c(c2)CC[C@@H](c2ccccc2)O3)s1)C(=O)OC(C)(C)C` [compound 229], for which the inhibition at 30 µM (NCX1 reverse mode, at 30 μM, read-out: Inhibition in % at 30 μM (NCX1rv; IC50 value not determined)) was found to be 44%.

Turning to `O=C(CCn1cccn1)NCc1cnc(Oc2ccc3c(c2)CCC(c2ccccc2)O3)s1` (stereo not shown) [compound 90], the IC50 was found to be 600 nM.

For `CCOC(=O)[C@H](C)NC(=O)c1cnc(Oc2ccc3c(c2)CCC(c2cccnc2)O3)s1` (stereo partly shown) [compound 276], the concentration for half-maximal inhibition (IC50) was determined as 400 nM.

With `CN1CC(=O)N(CC(=O)NCc2cnc(Oc3ccc4c(c3)CCC(c3ccccc3)O4)s2)C1=O` (stereo not shown) [compound 164], the 50% inhibitory concentration (IC50) turned out to be 700 nM.

For the compound `O=C(NC1C2CNCC21)c1cnc(Oc2ccc3c(c2)CCC(c2cccnc2)O3)s1` (stereo not shown) [compound 268], the concentration for half-maximal inhibition (IC50) turned out to be 2500 nM.

`CCC(C)[C@H](NC(=O)c1cnc(Oc2ccc3c(c2)CC[C@@H](c2ccccc2)O3)s1)C(=O)O` (stereo partly shown) [compound 196]: the IC50 turned out to be 500 nM.

Turning to `CC(C)(NC(=O)c1cnc(Oc2ccc3c(c2)CC[C@@H](c2ccccc2)O3)s1)C(=O)O` [compound 193], the IC50 came out at 600 nM.

Consider `Cc1cc(C(=O)NCc2cnc(Oc3ccc4c(c3)CCC(c3ccccc3)O4)s2)ccn1` (stereo not shown) [compound 82], for which the IC50 came out at 400 nM.

Regarding `Cc1nc(Oc2ccc3c(c2)CC[C@@H](c2ccccc2)O3)sc1C(=O)NCCc1ccncc1` [compound 169, hydrochloride], the half-maximal inhibitory concentration (IC50) is 300 nM.

For `O=C(Cn1cccn1)NCc1cnc(Oc2ccc3c(c2)CCC(c2ccccc2)O3)s1` (stereo not shown) [compound 92], the half-maximal inhibitory concentration (IC50) is 1100 nM.

For `COC(=O)C(C)(CC(C)C)NC(=O)c1cnc(Oc2ccc3c(c2)CC[C@@H](c2ccccc2)O3)s1` (stereo partly shown) [compound 231], the IC50 worked out at 1500 nM.

For `COc1cc(C(=O)NCc2cnc(Oc3ccc4c(c3)CCC(c3ccccc3)O4)s2)ccn1` (stereo not shown) [compound 76], the IC50 was 5600 nM.

On to `CC(C)c1csc([C@H](C)NC(=O)c2cnc(Oc3ccc4c(c3)CCC(c3ccccc3)O4)s2)n1` (stereo partly shown) [compound 53], for which the 50% inhibitory concentration (IC50) was determined as 700 nM.

Take `N[C@H]1C[C@@H]1NC(=O)c1cnc(Oc2ccc3c(c2)CCC(c2cccnc2)O3)s1` (stereo partly shown) [compound 267, hydrochloride]: the 50% inhibitory concentration (IC50) came out at 600 nM.

As for `CC(C)C[C@@H](NC(=O)c1cnc(Oc2ccc3c(c2)CC[C@@H](c2ccccc2)O3)s1)C(=O)O` [compound 237], the IC50 is 800 nM.

As to `O=C(NCc1ccncc1)c1cnc(Oc2ccc3c(c2)CC[C@H](c2ccccc2)O3)s1` [compound 37], the IC50 was determined as 200 nM.

On to `O=C(NCc1cnc(Oc2ccc3c(c2)CCC(c2ccccc2)O3)s1)c1ccno1` (stereo not shown) [compound 48], for which the IC50 worked out at 100 nM.

On to `O=C(NCc1ccncc1)c1cnc(Oc2ccc3c(c2)CCC(c2ccsc2)O3)s1` (stereo not shown) [compound 60, hydrochloride], for which the 50% inhibitory concentration (IC50) was found to be 100 nM.

Turning to `O=C(NCc1ccno1)c1cnc(Oc2ccc3c(c2)CCC(c2cc(F)ccc2F)O3)s1` (stereo not shown) [compound 217], the IC50 was determined as 200 nM.

`CCc1ccccc1C1CCc2cc(Oc3ncc(C(=O)NCCc4c(C)noc4C)s3)ccc2O1` (stereo not shown) [compound 323]: the 50% inhibitory concentration (IC50) came to 900 nM.

For `NCC1CCCN1C(=O)c1cnc(Oc2ccc3c(c2)CC[C@@H](c2ccccc2)O3)s1` (stereo partly shown) [compound 291], the half-inhibitory concentration (IC50) was determined as 400 nM.

With `Cc1cc(CNC(=O)c2cnc(Oc3ccc4c(c3)CCC(c3ccccc3)O4)s2)ccn1` (stereo not shown) [compound 9], the half-maximal inhibitory concentration (IC50) amounted to 800 nM.

For `O=C(NCc1cnc(Oc2ccc3c(c2)CCC(c2ccccc2)O3)s1)c1ccnc(N2CCCCC2)c1` (stereo not shown) [compound 75], the IC50 is 9800 nM.

In the case of `c1ccc(C2CCc3cc(Oc4ncc(CN5CCCC5)s4)ccc3O2)cc1` (stereo not shown) [compound 104], the IC50 stood at 400 nM.

With `Cc1ncoc1C(=O)NCc1cnc(Oc2ccc3c(c2)CCC(c2ccccc2)O3)s1` (stereo not shown) [compound 69], the IC50 was 500 nM.

With `Cc1n[nH]c(C)c1S(=O)(=O)NCc1cnc(Oc2ccc3c(c2)CCC(c2ccccc2)O3)s1` (stereo not shown) [compound 131], the 50% inhibitory concentration (IC50) amounted to 23800 nM.

`O=C(NC[C@H]1CCCC[C@H]1O)c1cnc(Oc2ccc3c(c2)CC[C@@H](c2ccccc2)O3)s1` [compound 207]: the IC50 came to 500 nM.

`N[C@H]1C[C@@H]1NC(=O)c1cnc(Oc2ccc3c(c2)CC[C@@H](c2ccccc2)O3)s1` [compound 256]: the IC50 is 300 nM.

Take `O=C(NCc1cnc(Oc2ccc3c(c2)CCC(c2ccccc2)O3)s1)c1ccnc(O)c1` (stereo not shown) [compound 88]: the IC50 is 5000 nM.

Take `O=C(NCC(O)CO)c1cnc(Oc2ccc3c(c2)CCC(c2ccccc2)O3)s1` (stereo not shown) [compound 305]: the IC50 stood at 300 nM.

Turning to `C[C@H](N)C(=O)NCc1cnc(Oc2ccc3c(c2)CC[C@@H](c2ccccc2)O3)s1` [compound 303], the IC50 was found to be 300 nM.

On to `O=C(NCc1cnc(Oc2ccc3c(c2)CCC(c2ccccc2)O3)s1)[C@@H]1CCCN1` (stereo partly shown) [compound 341, hydrochloride], for which the IC50 is 900 nM.

Consider `Cc1c(C(C)NC(=O)c2cnc(Oc3ccc4c(c3)CCC(c3ccccc3)O4)s2)cnn1C` (stereo not shown) [compound 8], for which the 50% inhibitory concentration (IC50) worked out at 800 nM.

Take `O=C(NC1(C(=O)O)CC1)c1cnc(Oc2ccc3c(c2)CC[C@@H](c2ccccc2)O3)s1` [compound 199]: the IC50 came out at 1000 nM.

Consider `CC(C)CNCc1cnc(Oc2ccc3c(c2)CCC(c2ccccc2)O3)s1` (stereo not shown) [compound 101], for which the concentration for half-maximal inhibition (IC50) amounted to 400 nM.

With `Nc1cc(C(=O)NCc2cnc(Oc3ccc4c(c3)CCC(c3ccccc3)O4)s2)ccn1` (stereo not shown) [compound 85], the half-maximal inhibitory concentration (IC50) stood at 10900 nM.

`Cc1cc(CNCc2cnc(Oc3ccc4c(c3)CCC(c3ccccc3)O4)s2)no1` (stereo not shown) [compound 140]: the IC50 was found to be 200 nM.

`CC1Cc2cc(Oc3ncc(C(=O)NCCO)s3)ccc2OC1c1ccccc1` (stereo not shown) [compound 364]: the IC50 turned out to be 960 nM.

`CCOC(=O)CNC(=O)c1cnc(Oc2ccc3c(c2)CCC(c2ccccc2)O3)s1` (stereo not shown) [compound 308]: the IC50 worked out at 200 nM.

Regarding `O=C(NCc1ccnc(O)c1)c1cnc(Oc2ccc3c(c2)CCC(c2ccccc2)O3)s1` (stereo not shown) [compound 42], the IC50 was determined as 200 nM.

For the compound `O=C(N[C@H](CO)c1ccccc1)c1cnc(Oc2ccc3c(c2)CCC(c2cccnc2)O3)s1` (stereo partly shown) [compound 251], the 50% inhibitory concentration (IC50) came to 1100 nM.

For `O=C(NCc1nnc2ccccn12)c1cnc(Oc2ccc3c(c2)CCC(c2ccccc2)O3)s1` (stereo not shown) [compound 35], the IC50 is 600 nM.

Regarding `C1=C(CNCc2cnc(Oc3ccc4c(c3)CCC(c3ccccc3)O4)s2)N2CCCN=C2S1` (stereo not shown) [compound 144], the 50% inhibitory concentration (IC50) came to 800 nM.
